The test system of experiment [1] is K105 cells. Nature of the experiment: Effect on K105 cells already adherent to chondroadherin, light microscopy time study (FIG. 7, 9, 10). The following applies: peptide 250 μg/ml added after 30 min adhesion; light microscopy after 1, 3 and 20 hours. Format: cell-based, human. On the procedure:
To test cell binding, the chondrosarcoma cells or bovine chondrocytes were suspended in PBS containing 0.1% BSA, 25 U/ml collagenase and added to the wells (50,000/well), in the absence or presence of various peptide pools or the synthetic peptides (200, 100, 50, 25, 12.5 μg/ml). Non-adherent cells were removed after 1 hour and adhesion was determined by measuring lysosomal N-acetylglucosaminidase (12). Adhesion and spreading was visualized by light microscopy. In the time studies, k105 cells were allowed to adhere for 30 minutes, unbound cells were removed and medium without serum supplemented with or without peptides (250 μg/ml), β1 integrin antibody (clone P4C10, Gibco BRL), EDTA (5 mM) was added. Cell morphology was visualized by light microscopy after 1, 3 and 20 hours.
Tissue culture dishes were coated with 5 μg/ml chondroadherin expressed in E. coli and blocked for non-specific binding with BSA. The k105 cells were suspended in PBS containing 0.1% BSA, and added to the wells (50,000/well). Nonadherent cells were removed after 30 min by washing, plain medium without serum with or without peptides (250 μg/ml) was added and bound cells were visualized by light microscopy after 1, 3 and 20 hours.
Tissue culture dishes were coated with 5 μg/ml chondroadherin expressed in E. coli and blocked for non-specific binding with BSA. The cells were suspended in PBS containing 0.1% BSA, and added to the wells (50,000/well). Nonadherent cells were removed after 30 min by washing, plain medium without serum with or without peptides (250 μg/ml) was added and bound cells were visualized by light microscopy after 1, 3 and 20 hours. […] The activity for integrin binding is located in the C-terminal eight residues of the sequence involving the WLEAK (SEQ ID No. 1) sequence.
Tissue culture dishes were coated with 5 μg/ml chondroadherin expressed in E. coli and blocked for non-specific binding with BSA. The k105 cells were suspended in PBS containing 0.1% BSA, and added to the wells (50,000/well). Nonadherent cells were removed after 30 min by washing, peptide, anti β1 antibody, 5 mM EDTA or plain medium without serum was added and bound cells were visualized by light microscopy after 1 and 3 hours.

The test system of experiment [2] is K105 cells. Nature of the experiment: Adhesion of K105 cells to collagen type II in the presence of synthetic peptide (FIG. 5C-5D). Format: cell-based, human. The following applies: peptide 250 μg/ml, 1 hour at 37° C. As for the experimental part:
Tissue culture 48-wells dishes (Nunclon, Nunc, Denmark) were coated overnight with 5 μg/ml chondroadherin in 4M Guanidine-HCl, 50 mM sodium acetate, pH 5.8, or for native protein in PBS. Alternatively coating was with 5 μg/ml collagen type II in PBS followed by after-coating with 0.5% BSA in PBS for 3 hours. Collagen type II was isolated from bovine nasal cartilage by pepsin digestion (11). Bacterially expressed chondroadherin was isolated as described above. Recombinant chondroadherin expressed in EBNA cell was cloned and purified as described elsewhere (8).
To test cell binding, the chondrosarcoma cells or bovine chondrocytes were suspended in PBS containing 0.1% BSA, 25 U/ml collagenase and added to the wells (50,000/well), in the absence or presence of various peptide pools or the synthetic peptides (200, 100, 50, 25, 12.5 μg/ml). Non-adherent cells were removed after 1 hour and adhesion was determined by measuring lysosomal N-acetylglucosaminidase (12). Adhesion and spreading was visualized by light microscopy. […]
Tissue culture dishes were coated with 5 μg/ml chondroadherin expressed in E. coli or collagen type II and blocked for non-specific binding with BSA. […] Spreading was visualized by light microscopy, and adhesion was determined by analyzing lysosomal hexosaminidase. Adhesion is expressed as number of cells where the data represent the average of two wells. […]

On to H-CKFPTKRSKKAGRH-OH [SEQ ID No. 7], for which the “spreading, migration and aggregation of k105 cells adherent to chondroadherin” value in the experiment on K105 cells [1] is “spreading and migration increased”. Further, the “k105 cell adhesion to collagen type II in the presence of peptide” value with K105 cells [2] is recorded as “not significantly affected”.
